pEC50: −log10 of the molar value.
What follows are molecules tested on Human RSV-A (“Long” strain) (assay: RSV in vitro cytoprotection assay in HEp-2 cells (ATPlite read-out)). Details: human respiratory syncytial virus, 96 h; HEp-2 cells, genotype A “Long” strain RSV, 4-day incubation, ATPlite; read-out: Human RSV-A (“Long” strain) EC50.
Type: cell-based
From the text: RSV is a single stranded negative sense RNA virus that causes respiratory tract infections which can be dangerous to infants, the elderly, and immunosuppressed individuals. Currently there is no vaccine, and therapeutic options are both costly and of limited effectiveness. These approved treatments are Ribavirin, and Palivizumab/Synagis (a monoclonal antibody). RSV has two genotypes, A and B, which differ primarily in the structure of the virus' surface “G” attachment protein. Our current primary screen focuses on RSV-A and uses an in vitro cytoprotection assay where compounds are added in 2-fold dilutions to cells which are then subjected to fully replicative viral particles. Cell viability is measured several days later along with separate measurements of compound cytotoxicity. This report focuses on the results of our most recent screening of compounds.
HEp-2 cells, (originally derived from tumors grown in irradiated-cortisonised weanling rats that had been injected with epidermoid carcinoma tissue from a person's larynx, but later found to be indistinguishable from HeLa cells by PCR DNA analysis), were used for the culturing of genotype A, “Long” strain RSV. Flasks were inoculated with RSV and viral stocks were collected once cytopathic effect (CPE) was greater than 90%. Viral stocks in 25% sucrose media were snap frozen using liquid nitrogen to increase viral stability. Viral stock titers were quantified by tissue culture infectious dose 50% (TCID50) using 8,000 cells per well and 3-fold viral dilutions across a 96-well plate, cultured for 4 days.
Following extensive parameter testing, the final assay is run as follows: HEp-2 cells are seeded into the inner 60 wells of a 96-well plate at 8,000 cells per well in a volume of 50 μL using Growth Media (DMEM without phenol red, 1% L-Glut, 1% Penn/Strep, 1% nonessential amino acids, 10% FBS). 2-Fold serial dilutions of control and test compounds are added to the wells in duplicate in a total volume of 25 μL. Viral stock is then added to the wells in a volume of 25 μL, bringing the total volume of each well to 100 μL. Each 96-well plate has a control column of 6 wells with cells and virus but no compound (negative control, max CPE), a column with cells but no compound or virus (positive control, minimum CPE), and a column with no cells or virus or compound (background plate/reagent control). The control wells with cells but no virus are given an additional 25 μL of growth media containing an equal quantity of sucrose as those wells receiving the viral stock in order to keep consistent in media and volume conditions. The outer wells of the plate are filled with 125 μL of growth media to act as a thermal and evaporative moat around the test wells. Following a 4-day incubation period, the plates are read using ATPlite (50 μL added per well), which quantifies the amount of ATP (a measure of cell health) present in each well. Assay plates are read using the Envision luminometer. In parallel, cytotoxicity is examined on an additional 96-well plate treated in an identical manner, but substituting the 25 μL of viral stock for 25 μL of growth media. […] EC50 ranges are as follows: A<0.1 μM; B 0.1-0.5 μM; C>0.5 μM

Structure (SMILES) | pEC50
Cc1cnc(N2CC3(CCOCC3)C2)c(C(=O)Nc2ccc(C(=O)N3CCc4cc(C(=O)c5nccn5C)sc4-c4ccc(F)cc43)cc2)c1 [Example 1] | > 7.00
Cc1cnc(N2CC3(CCOCC3)C2)c(C(=O)Nc2ccc(C(=O)N3CCc4cc(C(=O)c5nc6ccccc6n5C)sc4-c4ccc(F)cc43)cc2)c1 [Example 2] | 6.30 to 7.00
Cc1cnc(N2CC3(CCOCC3)C2)c(C(=O)Nc2ccc(C(=O)N3CCc4cc(C(=O)c5nc6ncccc6[nH]5)sc4-c4ccc(F)cc43)cc2)c1 [Example 3] | > 7.00
Cc1cnc(N2CC3(CCOCC3)C2)c(C(=O)Nc2ccc(C(=O)N3CCc4cc(C(=O)c5nc(C)c(C)[nH]5)sc4-c4ccc(F)cc43)cc2)c1 [Example 4] | > 7.00
Cc1cnc(N2CC3(CCOCC3)C2)c(C(=O)Nc2ccc(C(=O)N3CCc4cc(C(=O)c5nc6cc(F)ccc6[nH]5)sc4-c4ccc(F)cc43)cc2)c1 [Example 5] | 6.30 to 7.00
Cc1cnc(N2CC3(CCOCC3)C2)c(C(=O)Nc2ccc(C(=O)N3CCc4cc(C(=O)c5nc6c(C)cccc6[nH]5)sc4-c4ccc(F)cc43)cc2)c1 [Example 6] | > 7.00
Cc1cnc(N2CC3(CCOCC3)C2)c(C(=O)Nc2ccc(C(=O)N3CCc4cc(C(=O)c5nc6c(F)cccc6[nH]5)sc4-c4ccc(F)cc43)cc2)c1 [Example 7] | > 7.00
Cc1cnc(N2CC3(CCOCC3)C2)c(C(=O)Nc2ccc(C(=O)N3CCc4cc(C(=O)c5nc6ccccc6[nH]5)sc4-c4ccc(F)cc43)cc2)c1 [Example 8] | > 7.00
Cc1cnc(N2CC3(CCOCC3)C2)c(C(=O)Nc2ccc(C(=O)N3CCc4cc(C(=O)c5ncc(C)[nH]5)sc4-c4ccc(F)cc43)cc2)c1 [Example 9] | > 7.00
Cc1cnc(N2CC3(CCOCC3)C2)c(C(=O)Nc2ccc(C(=O)N3CCc4cc(C(=O)c5nc(C6CC6)c[nH]5)sc4-c4ccc(F)cc43)cc2)c1 [Example 10] | 6.30 to 7.00
Cc1cnc(N2CC3(CCOCC3)C2)c(C(=O)Nc2ccc(C(=O)N3CCc4cc(C(=O)c5nc6ccccc6[nH]5)sc4-c4ccccc43)cc2)c1 [Example 11] | > 7.00
Cc1cnc(N2CC3(CCOCC3)C2)c(C(=O)Nc2ccc(C(=O)N3CCc4cc(C(=O)c5nc6ccccc6[nH]5)oc4-c4ccccc43)cc2)c1 [Example 12] | > 7.00
Cc1cnc(N2CC3(CCOCC3)C2)c(C(=O)Nc2ccc(C(=O)N3CCc4cc(C(=O)c5nc(C)c(C)[nH]5)oc4-c4ccccc43)cc2)c1 [Example 13] | > 7.00
Cc1cnc(N2CC3(CCOCC3)C2)c(C(=O)Nc2ccc(C(=O)N3CCc4cc(C(=O)c5ncc(C)[nH]5)oc4-c4ccccc43)cc2)c1 [Example 14] | > 7.00
Cc1cnc(N2CC3(CCOCC3)C2)c(C(=O)Nc2ccc(C(=O)N3CCc4cc(C(=O)c5nc6c(C)cccc6[nH]5)oc4-c4ccccc43)cc2)c1 [Example 15] | > 7.00
Cc1cnc(N2CC3(CCOCC3)C2)c(C(=O)Nc2ccc(C(=O)N3CCc4cc(C(=O)c5nc6c(F)cccc6[nH]5)oc4-c4ccccc43)cc2)c1 [Example 16] | > 7.00
Cc1cnc(N2CC3(CCOCC3)C2)c(C(=O)Nc2ccc(C(=O)N3CCc4cc(C(=O)c5nc6c([nH]5)CCCC6)oc4-c4ccccc43)cc2)c1 [Example 17] | > 7.00
Cc1cnc(N2CC3(CCOCC3)C2)c(C(=O)Nc2ccc(C(=O)N3CCc4cc(C(=O)c5nc6ccccc6n5C)oc4-c4ccccc43)cc2)c1 [Example 18] | > 7.00
Cc1cnc(N2CC3(CCOCC3)C2)c(C(=O)Nc2ccc(C(=O)N3CCc4cc(C(=O)c5nccn5C)sc4-c4ncccc43)cc2)c1 [Example 19] | > 7.00
Cc1cnc(N2CC3(CCOCC3)C2)c(C(=O)Nc2ccc(C(=O)N3CCc4cc(C(=O)c5nc6c(C)cccc6[nH]5)sc4-c4ncccc43)cc2)c1 [Example 20] | < 6.30

Structure (SMILES) | pEC50
Cc1cnc(N2CC3(CCOCC3)C2)c(C(=O)Nc2ccc(C(=O)N3CCc4cc(C(=O)c5nc6ccccc6[nH]5)sc4-c4ncccc43)cc2)c1 [Example 21] | > 7.00
Cc1cnc(N2CC3(CCOCC3)C2)c(C(=O)Nc2ccc(C(=O)N3CCc4cc(C(=O)c5nc6c([nH]5)CCCC6)sc4-c4ncccc43)cc2)c1 [Example 23] | > 7.00
Cc1cnc(N2CC3(CCOCC3)C2)c(C(=O)Nc2ccc(C(=O)N3CCc4cc(C(=O)c5nc6c([nH]5)CCC6)sc4-c4ncccc43)cc2)c1 [Example 24] | > 7.00
Cc1cnc(N2CC3(CCOCC3)C2)c(C(=O)Nc2ccc(C(=O)N3CCc4cc(C(=O)c5nc6ccccc6n5C)sc4-c4ncccc43)cc2)c1 [Example 25] | 6.30 to 7.00
Cc1cnc(N2CC3(CCOCC3)C2)c(C(=O)Nc2ccc(C(=O)N3CCc4cc(C(=O)c5nc6c(F)cccc6[nH]5)sc4-c4ncccc43)cc2)c1 [Example 26] | > 7.00
Cc1ccc(C(=O)Nc2ccc(C(=O)N3CCc4c(sc(C(=O)c5nc6ccccc6[nH]5)c4F)-c4ccccc43)cc2)c(N2CC3(CCOCC3)C2)n1 [Example 27] | < 6.30
Cc1ccc(C(=O)Nc2ccc(C(=O)N3CCc4c(sc(C(=O)c5nccn5C)c4F)-c4ccccc43)cc2)c(N2CC3(CCOCC3)C2)n1 [Example 28] | > 7.00
Cc1cnc(N2CC3(CCOCC3)C2)c(C(=O)Nc2ccc(C(=O)N3CCc4cc(C(=O)c5ncc6ccccn56)sc4-c4ccc(F)cc43)cc2)c1 [Example 29] | > 7.00
Cc1cnc(N2CC3(CCOCC3)C2)c(C(=O)Nc2ccc(C(=O)N3CCc4cc(C(=O)c5nc6ccccc6o5)sc4-c4ccc(F)cc43)cc2)c1 [Example 30] | > 7.00
Cc1cnc(N2CC3(CCOCC3)C2)c(C(=O)Nc2ccc(C(=O)N3CCc4cc(C(=O)c5nnc(C)o5)sc4-c4ccc(F)cc43)cc2)c1 [Example 31] | 6.30 to 7.00
Cc1cnc(N2CC3(CCOCC3)C2)c(C(=O)Nc2ccc(C(=O)N3CCc4cc(C(=O)c5nc(C#N)c[nH]5)sc4-c4ccc(F)cc43)cc2)c1 [Example 32] | > 7.00
Cc1cnc(N2CC3(CCOCC3)C2)c(C(=O)Nc2ccc(C(=O)N3CCc4cc(C(=O)c5nc(C(F)(F)F)c[nH]5)sc4-c4ccc(F)cc43)cc2)c1 [Example 33] | > 7.00
Cc1cnc(N2CC3(CCOCC3)C2)c(C(=O)Nc2ccc(C(=O)N3CCc4cc(C(=O)c5cc(C(F)(F)F)n[nH]5)sc4-c4ccc(F)cc43)cc2)c1 [Example 34] | 6.30 to 7.00
Cc1cnc(N2CC3(CCOCC3)C2)c(C(=O)Nc2ccc(C(=O)N3CCc4cc(C(=O)c5cc(C)n[nH]5)sc4-c4ccc(F)cc43)cc2)c1 [Example 35] | > 7.00
Cc1cnc(N2CC3(CCOCC3)C2)c(C(=O)Nc2ccc(C(=O)N3CCc4cc(C(=O)c5[nH]nnc5C)sc4-c4ccc(F)cc43)cc2)c1 [Example 36] | > 7.00
Cc1ccc(C(=O)Nc2ccc(C(=O)N3CCc4cc(C(=O)c5[nH]nnc5C)sc4-c4ccc(F)cc43)cc2)c(N2CC3(CCOCC3)C2)n1 [Example 37] | 6.30 to 7.00
Cc1cnc(N2CC3(CCOCC3)C2)c(C(=O)Nc2ccc(C(=O)N3CCc4cc(C(=O)c5ccccc5C)sc4-c4ccccc43)cc2)c1 [Example 38] | < 6.30
Cc1cnc(N2CC3(CCOCC3)C2)c(C(=O)Nc2ccc(C(=O)N3CCc4cc(C(=O)c5ccccc5F)sc4-c4ccccc43)cc2)c1 [Example 39] | 6.30 to 7.00
Cc1cnc(N2CC3(CCOCC3)C2)c(C(=O)Nc2ccc(C(=O)N3CCc4cc(C(=O)c5ncccc5C)sc4-c4ccccc43)cc2)c1 [Example 40] | 6.30 to 7.00

Same assay, conditions: human respiratory syncytial virus, HEp-2

Structure (SMILES) | pEC50
O=C(Nc1ccccc1F)N[C@H]1N=C(c2ccccc2)c2ccccc2NC1=O [RSV-604, reference compound] | ~5.62

Reference: patent US10975094B2, “Heterocyclic compounds as RSV inhibitors” (Enanta Pharmaceuticals, Inc., priority 2018, dated 2021)
